Measurements taken from ChEMBL document CHEMBL2074256, “HIV protease inhibitors are inhibitors but not substrates of the human breast cancer resistance protein (BCRP/ABCG2)” (J Pharmacol Exp Ther, 2004).

Target: T1, Broad substrate specificity ATP-binding cassette transporter ABCG2 (Homo sapiens, UniProt Q9UNQ0)
T1 sequence (Q9UNQ0 whole entry): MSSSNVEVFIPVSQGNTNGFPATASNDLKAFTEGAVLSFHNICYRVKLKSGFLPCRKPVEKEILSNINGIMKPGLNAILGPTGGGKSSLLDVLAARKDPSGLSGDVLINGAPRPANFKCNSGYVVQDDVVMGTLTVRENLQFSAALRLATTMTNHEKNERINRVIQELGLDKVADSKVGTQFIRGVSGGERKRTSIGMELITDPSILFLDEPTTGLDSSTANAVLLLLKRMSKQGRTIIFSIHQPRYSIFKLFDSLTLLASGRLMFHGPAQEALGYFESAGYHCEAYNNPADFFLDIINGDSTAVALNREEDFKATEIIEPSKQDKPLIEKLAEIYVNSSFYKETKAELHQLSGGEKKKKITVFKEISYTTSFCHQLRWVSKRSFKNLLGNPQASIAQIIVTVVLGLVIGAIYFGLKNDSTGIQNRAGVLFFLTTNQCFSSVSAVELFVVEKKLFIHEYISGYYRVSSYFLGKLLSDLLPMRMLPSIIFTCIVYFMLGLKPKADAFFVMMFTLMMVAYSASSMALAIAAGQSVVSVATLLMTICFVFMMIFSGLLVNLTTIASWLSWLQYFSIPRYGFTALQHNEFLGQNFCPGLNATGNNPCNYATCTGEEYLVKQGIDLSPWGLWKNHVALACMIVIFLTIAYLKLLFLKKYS
Assay: TP_TRANSPORTER: increase in mitoxantrone intracellular accumulation in BCRP-expressing HEK cells
Format: functional, cell-based, HEK293

| SMILES | IC50 [µM] |
| --- | --- |
| CC(C)(C)NC(=O)[C@@H]1C[C@@H]2CCCC[C@@H]2CN1C[C@@H](O)[C@H](Cc1ccccc1)NC(=O)[C@H](CC(N)=O)NC(=O)c1ccc2ccccc2n1 | 19.5 |
| Cc1c(O)cccc1C(=O)N[C@@H](CSc1ccccc1)[C@H](O)CN1C[C@H]2CCCC[C@H]2C[C@H]1C(=O)NC(C)(C)C | 12.5 |
